Reference: patent US9107900B2, “Use of dronedarone for the preparation of a medicament for use in the prevention of cardiovascular hospitalization or of morality” (SANOFI, priority 2008, dated 2015)
Where a name gives a salt, the structure may show the parent alone.

Test: blood potassium level from regular blood samples in the same clinical study
Type: in vivo, human
Conditions: after the 24th month, taking into account the starting value; vs placebo; p<0.0001
Excerpt: The potassium concentration-modulating effect is clearly documented in the study by virtue of the results of analyses of regular blood samples taken throughout the duration of the study in the context of the monitoring of vital parameters.
The variations in potassium (in mmol/l) between the first and the last administration of the medicament of the study are included in FIG. 8, in which B signifies basal level, D signifies day and M signifies month.

CCCCc1oc2ccc(NS(C)(=O)=O)cc2c1C(=O)c1ccc(OCCCN(CCCC)CCCC)cc1 [dronedarone hydrochloride, 2-n-Butyl-3-[4-(3-di-n-butylaminopropoxy)benzoyl]-5-methylsulphonamidobenzofuran]
change in blood potassium level (analysis of covariance): significant different in favour of dronedarone
